Measurements taken from US20080210128A1, “Optical Layer including mu-oxo-bridged boron-subphthalocyanine dimer” (ORIENT CHEMICAL INDUSTRIES, LTD., priority 2007, published 2008).
Converted amounts (≈) assume the structure as drawn. Read-outs that look alike come from different tables or passages of the source.

Key:
[1] = Absorption spectrum in chloroform (spectral photometer UV-1700); assay type: physicochemical
[2] = Solubility in methyl ethyl ketone
Excerpt: Incidentally, a spectral photometer of UV-1700 available from Shimadzu Corporation was used.

[3] = Dissolution of colorant on preparing the coating agent; assay type: physicochemical; conditions: 0.5 parts by weight colorant in methyl ethyl ketone / cyclohexanone with polymethacrylate
Description: 0.1 parts by weight of the Compound obtained in the Manufacturing Example 1 and 15 parts by weigh of polymethacrylate were mixed and dissolved into 50 parts by weight of methyl ethyl ketone and 35 parts by weight of cyclohexanone by stirring, and liquid coating agent was prepared.
In Comparative Example 2, a thin layer was prepared by the same procedures as Example 1 except for using a coating agent prepared by using Intermediate Compound A-1 obtained in Manufacturing Example 1 instead of using Compound 1 used in Example 1. Incidentally, the additive amount of colorant to prepare a coating agent was changed to 0.5 parts by weight. […] Therefore, a coating agent was obtained as dispersion.

What does the source list for {(C8H17O)3SubPcB}2O [Compound 3]?
maximum absorption wavelength [1]: 543 nm; molar absorption coefficient [1]: 87000 dm^3mol^−1cm^−1; Solubility [2]: 83.2 mg/mL

Which results are given for “SubPcBOH [Intermediate Compound B-1, reference compound]”?
maximum absorption wavelength [1]: 562 nm; molar absorption coefficient [1]: 45000 dm^3mol^−1cm^−1

Which maximum absorption wavelength [1] does the source give for `ClB1n2c3c4ccccc4c2N=c2c4ccccc4c(n21)=NC1=NC(=N3)c2ccccc21` [Intermediate Compound A-1, SubPcBCl, reference compound] here?
The maximum absorption wavelength was 565 nm.

What about the molar absorption coefficient [1] of the same compound?
Its molar absorption coefficient is 51000 dm^3mol^−1cm^−1.

And the “dissolution in coating agent” value [3]?
Its value is “did not dissolve completely”.

What about the Solubility [2] of the same compound?
Its Solubility is 0.025 mg/mL (≈ 58 µM).

Which results are given for `c1ccc2c(c1)C1=Nc3c4ccccc4c4n3[B-]3(O[B-]56n7c8c9ccccc9c7N=c7c9ccccc9c(n75)=NC5=[N+]6C(=N8)c6ccccc65)n5c(c6ccccc6c5=N4)=NC2=[N+]13` (stereo not drawn) [Compound 1, (SubPcB)2O]?
maximum absorption wavelength [1]: 532 nm; molar absorption coefficient [1]: 106000 dm^3mol^−1cm^−1; Solubility ([2]; solvent: methyl ethyl ketone): 1.14 mg/mL (≈ 1410 µM)

What does the source list for (t-Bu3SubPcB)2O [Compound 2]?
maximum absorption wavelength [1]: 543 nm; molar absorption coefficient [1]: 61000 dm^3mol^−1cm^−1; Solubility ([2]; solvent: methyl ethyl ketone): 58.5 mg/mL
